Results: the supplement of paper PMC10307832

Key:
Assay in all cases: relative viability (nuclei count vs DMSO), 5 days (fraction); higher = more cells survive
A549 = test system: A549
Summary of the method: (§1)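 Lung cancer cell lines in 1536-well plates were dosed by pin tool the day after seeding, either with one drug alone or with a fixed anchor-drug dose plus five library-drug doses (not always all listed) in √10 steps. After 5 days, cells were fixed and their nuclei stained in one step (final 0.05% Triton X-100, 1% formaldehyde, 1 ug/ml Hoechst), then counted on 4× images. Relative viability is the nuclei count in treated wells divided by that in vehicle wells. Values are medians of duplicate plates.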

Calu-6 = test system: Calu-6
Summary of the method: as §1

EBC-1 = test system: EBC-1
Summary of the method: as §1

IA-LM = test system: IA-LM
Summary of the method: as §1

NCI-H1299 = test system: NCI-H1299
Summary of the method: as §1

NCI-H1355 = test system: NCI-H1355
Summary of the method: as §1

NCI-H1703 = test system: NCI-H1703
Summary of the method: as §1

CC(C)Oc1cc(Nc2nc(N[C@@H](C)c3ccc(F)cn3)ncc2Cl)n[nH]1 [AZ23] + C[C@@H](Oc1cc(-c2cnn(C3CCNCC3)c2)cnc1N)c1c(Cl)ccc(F)c1Cl [Crizotinib] (partner 1 µM)
relative viability (A549; first compound 0.01 µM): 1.08 | relative viability (A549; first compound 0.03162 µM): 1.03 | relative viability (A549; first compound 0.3162 µM): 0.943 | relative viability (Calu-6; first compound 0.03162 µM): 0.987 | relative viability (Calu-6; first compound 0.3162 µM): 0.974 | relative viability (EBC-1; first compound 0.03162 µM): 0.196 | relative viability (EBC-1; first compound 0.3162 µM): 0.185 | relative viability (IA-LM; first compound 0.01 µM): 0.919 | relative viability (IA-LM; first compound 0.03162 µM): 0.824 | relative viability (IA-LM; first compound 0.3162 µM): 0.813 | relative viability (NCI-H1299; first compound 0.01 µM): 1.06 | relative viability (NCI-H1299; first compound 0.03162 µM): 1.01 | relative viability (NCI-H1299; first compound 0.3162 µM): 1.08 | relative viability (NCI-H1355; first compound 0.01 µM): 1.19 | relative viability (NCI-H1355; first compound 0.03162 µM): 1.11 | relative viability (NCI-H1355; first compound 0.3162 µM): 1.09 | relative viability (NCI-H1703; first compound 0.01 µM): 0.51 | relative viability (NCI-H1703; first compound 0.03162 µM): 0.761 | relative viability (NCI-H1703; first compound 0.3162 µM): 0.626

COc1cc(N2CCC(C(N)=O)CC2)ccc1Nc1nc(N)c(Cl)c(Nc2ccccc2S(=O)(=O)C(C)C)n1 [HG-5-88-01] + C[C@]1(O)C[C@@H](c2nc(-c3ccc4ccc(-c5ccccc5)nc4c3)c3c(N)nccn32)C1 [Linsitinib] (partner 1 µM)
relative viability (A549; first compound 0.04 µM): 0.59 | relative viability (A549; first compound 0.1265 µM): 0.771 | relative viability (A549; first compound 0.4 µM): 0.634 | relative viability (A549; first compound 1.265 µM): 0.432 | relative viability (A549; first compound 4 µM): 0.796 | relative viability (Calu-6; first compound 0.04 µM): 0.938 | relative viability (Calu-6; first compound 0.1265 µM): 0.837 | relative viability (Calu-6; first compound 0.4 µM): 0.95 | relative viability (Calu-6; first compound 1.265 µM): 0.929 | relative viability (Calu-6; first compound 4 µM): 1.02 | relative viability (EBC-1; first compound 0.04 µM): 0.892 | relative viability (EBC-1; first compound 0.1265 µM): 0.373 | relative viability (EBC-1; first compound 0.4 µM): 0.924 | relative viability (EBC-1; first compound 1.265 µM): 0.847 | relative viability (EBC-1; first compound 4 µM): 0.927 | relative viability (IA-LM; first compound 0.04 µM): 0.602 | relative viability (IA-LM; first compound 0.1265 µM): 0.383 | relative viability (IA-LM; first compound 0.4 µM): 0.488 | relative viability (IA-LM; first compound 1.265 µM): 0.314 | relative viability (IA-LM; first compound 4 µM): 0.542 | relative viability (NCI-H1299; first compound 0.04 µM): 0.999 | relative viability (NCI-H1299; first compound 0.1265 µM): 0.97 | relative viability (NCI-H1299; first compound 0.4 µM): 0.945 | relative viability (NCI-H1299; first compound 1.265 µM): 0.97 | relative viability (NCI-H1299; first compound 4 µM): 1.1 | relative viability (NCI-H1355; first compound 0.04 µM): 0.863 | relative viability (NCI-H1355; first compound 0.1265 µM): 0.85 | relative viability (NCI-H1355; first compound 0.4 µM): 0.864 | relative viability (NCI-H1355; first compound 1.265 µM): 0.705 | relative viability (NCI-H1355; first compound 4 µM): 0.767 | relative viability (NCI-H1703; first compound 0.04 µM): 0.689 | relative viability (NCI-H1703; first compound 0.1265 µM): 0.648 | relative viability (NCI-H1703; first compound 1.265 µM): 0.486 | relative viability (NCI-H1703; first compound 4 µM): 1.62
